Measured values published in the supplement of paper PMC4862054.

Columns and labels:
Conditions in all cases: incubation time: 72 h
MDA-MB-453 [1] = experiment: drug sensitivity score (DSS), CellTiter-Glo (DSS (AUC-based score)); higher = stronger drug effect (viability inhibition or cytotoxicity); extreme values may be limits of the assay
How it was run: (§1)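 Breast cancer cell lines were seeded in 20 µl suspension into 384-well plates already holding compound and incubated for 72 h. Each compound was tested at 5 concentrations in 10-fold steps across its own 10,000-fold range. Plates were normalised to 0.1 % DMSO and a positive kill control after CellTox Green and then CellTiter-Glo readings. The area under the fitted dose-response curve served as the basis for the drug sensitivity score.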

MFM-223 [2] = experiment: as above
How it was run: as §1

CAL-120 [3] = experiment: as above
How it was run: as §1

CAL-51 [4] = experiment: as above
How it was run: as §1

MDA-MB-468 [5] = experiment: as above
How it was run: as §1

CAL-148 [6] = experiment: as above
How it was run: as §1

MDA-MB-231 [7] = experiment: as above
How it was run: as §1

SK-BR-3 = experiment: as above
How it was run: as §1

HCC1937 [8] = experiment: as above
How it was run: as §1

BT-474 [9] = experiment: as above
How it was run: as §1

MDA-MB-453 [10] = experiment: normalised response (% of control), CellTox Green; higher = less cell death (100 = DMSO, 0 = benzethonium chloride kill control)
How it was run: (§2)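 After 72 h with compound in 384-well plates, breast cancer cell lines seeded as 20 µl suspension were read for CellTox Green fluorescence at 485/520 nm. CellTiter-Glo luminescence was then read after 10 min at room temperature. Compound was present at 5 concentrations in 10-fold steps over a 10,000-fold range set per compound, and plates were normalised to 0.1 % DMSO (100) and a positive kill control (0). Values are normalised signals, each at a single concentration.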

MFM-223 [11] = experiment: as above
How it was run: as §2

DU-4475 = experiment: as above
How it was run: as §2

CAL-120 [12] = experiment: as above
How it was run: as §2

MDA-MB-436 = experiment: as above
How it was run: as §2

HDQ-P1 = experiment: as above
How it was run: as §2

CAL-51 [13] = experiment: as above
How it was run: as §2

MCF-10A = experiment: as above
How it was run: as §2

HCC1143 = experiment: as above
How it was run: as §2

HCC1599 = experiment: as above
How it was run: as §2

BT-549 = experiment: as above
How it was run: as §2

MDA-MB-468 [14] = experiment: as above
How it was run: as §2

Hs578T = experiment: as above
How it was run: as §2

CAL-148 [15] = experiment: as above
How it was run: as §2

MDA-MB-231 [16] = experiment: as above
How it was run: as §2

HCC1937 [17] = experiment: as above
How it was run: as §2

CAL-85-1 = experiment: as above
How it was run: as §2

BT-474 [18] = experiment: as above
How it was run: as §2

Row | Compound | drug sensitivity score (MDA-MB-453 [1]) | drug sensitivity score (MFM-223 [2]) | drug sensitivity score (CAL-120 [3]) | drug sensitivity score (CAL-51 [4]) | drug sensitivity score (MDA-MB-468 [5]) | drug sensitivity score (CAL-148 [6]) | drug sensitivity score (MDA-MB-231 [7]) | drug sensitivity score (SK-BR-3) | drug sensitivity score (HCC1937 [8]) | drug sensitivity score (BT-474 [9]) | normalised response (MDA-MB-453 [10]) [%] | normalised response (MFM-223 [11]) [%] | normalised response (DU-4475) [%] | normalised response (CAL-120 [12]) [%] | normalised response (MDA-MB-436) [%] | normalised response (HDQ-P1) [%] | normalised response (CAL-51 [13]) [%] | normalised response (MCF-10A) [%] | normalised response (HCC1143) [%] | normalised response (HCC1599) [%] | normalised response (BT-549) [%] | normalised response (MDA-MB-468 [14]) [%] | normalised response (Hs578T) [%] | normalised response (CAL-148 [15]) [%] | normalised response (MDA-MB-231 [16]) [%] | normalised response (HCC1937 [17]) [%] | normalised response (CAL-85-1) [%] | normalised response (BT-474 [18]) [%]
1 | Cn1cc(C2=Nc3cc(NC(=O)C(N)C4CCCCC4)cc4c3C2=CNNC4=O)cn1 (stereo not drawn) | 14.3 | 12.2 | 6.28 | 5.76 | 14.4 | 0 | 7.52 | 19.1 | 4.78 | 6.46 |  |  |  |  |  |  |  |  |  |  |  |  |  |  |  |  |  | 
2 | COc1cc2c(cc1O)CC[C@@H]1[C@@H]2CC[C@]2(C)[C@@H](O)CC[C@@H]12 [2-methoxyestradiol] | 5.52 | 4.75 | 4.15 | 5.34 | 4.21 | 2.17 | 5.78 | 5.71 | 0 | 5.9 |  |  |  |  |  |  |  |  |  |  |  |  |  |  |  |  |  | 
3 | Cc1sc2c(c1C)C(c1ccc(Cl)cc1)=N[C@@H](CC(=O)OC(C)(C)C)c1nnc(C)n1-2 [(+)JQ1] | 10.7 | 8.38 | 4.19 | 1.66 | 9.62 | 6.21 | 3.61 | 5.66 | 3.6 | 7.3 |  |  |  |  |  |  |  |  |  |  |  |  |  |  |  |  |  | 
4 | CC1(C)CCC(CN2CCN(c3ccc(C(=O)NS(=O)(=O)c4ccc(NCC5CCOCC5)c([N+](=O)[O-])c4)c(Oc4cnc5[nH]ccc5c4)c3)CC2)=C(c2ccc(Cl)cc2)C1 [ABT-199] | 0 | 0 | 0 | 1.71 | 0.128 | 0 | 0 | 0 | 0 | 0 |  |  |  |  |  |  |  |  |  |  |  |  |  |  |  |  |  | 
5 | Oc1ncnc2[nH]ncc12 [Allopurinol] | 0 | 0 | 0 | 0 | 0 | 0 | 0 | 0 | 0 | 0 |  |  |  |  |  |  |  |  |  |  |  |  |  |  |  |  |  | 
6 | O=C1CN2Cc3c(ccc(Cl)c3Cl)N=C2N1 [Anagrelide] | 0 | 0 | 0 | 0.565 | 0 | 0 | 0 | 0 | 0 | 0.269 |  |  |  |  |  |  |  |  |  |  |  |  |  |  |  |  |  | 
7 | Nc1ncn([C@@H]2O[C@H](CO)[C@@H](O)[C@H]2O)c(=O)n1 [Azacitidine] | 0 | 0 | 0 | 0 | 12.1 | 0 | 0 | 0 | 0 | 1.74 |  |  |  |  |  |  |  |  |  |  |  |  |  |  |  |  |  | 
8 | O=NN(CCCl)C(=O)NCCCl [Carmustine] | 0 | 0 | 0 | 0 | 0 | 0 | 0 | 0 | 0 | 0 |  |  |  |  |  |  |  |  |  |  |  |  |  |  |  |  |  | 
9 | CC1=C2C[C@H]3[C@@H](CC=C4C[C@@H](O)CC[C@@]43C)[C@@H]2CC[C@]12O[C@@H]1C[C@H](C)CN[C@H]1[C@H]2C [Cyclopamine] | 0 | 0 | 0 | 0 | 0 | 0 | 0 | 0 | 0 | 0 |  |  |  |  |  |  |  |  |  |  |  |  |  |  |  |  |  | 
10 | CC(=O)N(O)CCCCCNC(=O)CCC(=O)N(O)CCCCCNC(=O)CCC(=O)N(O)CCCCCN [Deferoxamine] | 0 | 0 | 0 | 3.33 | 7.85 | 9.03 | 0 | 4.14 | 3.29 | 0 |  |  |  |  |  |  |  |  |  |  |  |  |  |  |  |  |  | 
11 | CC(=O)O[C@@]12CO[C@@H]1C[C@H](O)[C@@]1(C)C(=O)[C@H](O)C3=C(C)[C@@H](OC(=O)[C@H](O)[C@@H](NC(=O)OC(C)(C)C)c4ccccc4)C[C@@](O)([C@@H](OC(=O)c4ccccc4)[C@H]21)C3(C)C [Docetaxel] | 14.8 | 16.7 | 13.3 | 19.5 | 27.3 | 20.5 | 19.4 | 31.4 | 10.6 | 15.6 |  |  |  |  |  |  |  |  |  |  |  |  |  |  |  |  |  | 
12 | CC(=O)O[C@@]12CO[C@@H]1C[C@H](O)[C@@]1(C)C(=O)[C@H](O)C3=C(C)[C@@H](OC(=O)[C@H](O)[C@@H](NC(=O)OC(C)(C)C)c4ccccc4)C[C@@](O)([C@@H](OC(=O)c4ccccc4)[C@H]21)C3(C)C [Docetaxel] (1000 nM) |  |  |  |  |  |  |  |  |  |  | 92.4 | 53.9 | 98.5 | 89.9 | 71.9 | 35.5 | 45.6 | 36.3 | 55.4 | 88.5 | 38.7 | 134 | 22.6 | 84.2 | -47.2 | 46.5 | 29.6 | 58.4
